In assay [1] the target is JAK2 (Homo sapiens (Human), UniProt O60674). Description: JAK2 inhibitory activity, mobility shift assay, 1 mM ATP. Conditions: Table 7. The assay is classed as biochemical. Here is the method:
(§1) The JAK1 inhibitory activity and the JAK2 inhibitory activity of the amide compounds provided in the above examples were tested by the method below.
(§2) Specific steps are described below. • 1. A 1× Kinase buffer was formulated. • 2. Concentration gradients of the compound were formulated: a test compound with an initial concentration of 10000 nM (JAK1) or 30000 nM (JAK2) was diluted in a 384-well plate to a 100% DMSO solution with a 100-fold final concentration, wherein the compound was diluted by a fold of 3 to 10 concentrations. 250 nL of the compound with the 100-fold final concentration was transferred with a dispenser Echo 550 to the target plate. • 3. A kinase solution with a 2.5-fold final concentration was prepared with the 1× Kinase buffer. • 4. […] The plate was centrifuged at 1000 rpm for 30 s, shaken and uniformly mixed, and incubated for 10 min at room temperature. • 6. A mixed solution of ATP (the final concentration of ATP=1 mM) and Kinase substrate with a 5/3-fold final concentration was formulated with the 1× Kinase buffer. • 7. 15 μL of the mixed solution of ATP and the substrate with the 5/3-fold final concentration was added to initiate the reaction. • 8. The 384-well plate was centrifuged at 1000 rpm for 30 s, shaken and uniformly mixed, and incubated for respective times at room temperature. • 9. The kinase reaction was stopped by adding 30 μL of a detection termination solution, and the plate was centrifuged at 1000 rpm for 30 s and shaken and uniformly mixed. • 10. The conversion rate was read with Caliper EZ Reader and the half maximal inhibitory concentration (IC50) was calculated.

Assay [2] has as its target JAK1 (Homo sapiens (Human), UniProt P23458). Briefly: JAK1 inhibitory activity, mobility shift assay, 1 mM ATP. The assay is classed as biochemical. Particulars: 1 mM ATP; Table 7. The procedure:
as §1, §2

Molecules are shown by their SMILES.

Usually IC50 stands for the point on the concentration scale where inhibition reaches its midpoint.

Sequence of JAK1 (P23458 850-1154): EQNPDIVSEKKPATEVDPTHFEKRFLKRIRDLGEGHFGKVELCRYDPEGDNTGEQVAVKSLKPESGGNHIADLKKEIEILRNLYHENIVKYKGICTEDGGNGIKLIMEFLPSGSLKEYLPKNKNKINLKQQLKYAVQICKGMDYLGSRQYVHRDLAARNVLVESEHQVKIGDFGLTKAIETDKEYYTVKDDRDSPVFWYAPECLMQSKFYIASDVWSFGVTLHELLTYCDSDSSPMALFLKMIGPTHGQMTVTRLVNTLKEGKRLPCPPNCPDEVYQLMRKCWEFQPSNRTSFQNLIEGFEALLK
Sequence of JAK2 (O60674 826-1132): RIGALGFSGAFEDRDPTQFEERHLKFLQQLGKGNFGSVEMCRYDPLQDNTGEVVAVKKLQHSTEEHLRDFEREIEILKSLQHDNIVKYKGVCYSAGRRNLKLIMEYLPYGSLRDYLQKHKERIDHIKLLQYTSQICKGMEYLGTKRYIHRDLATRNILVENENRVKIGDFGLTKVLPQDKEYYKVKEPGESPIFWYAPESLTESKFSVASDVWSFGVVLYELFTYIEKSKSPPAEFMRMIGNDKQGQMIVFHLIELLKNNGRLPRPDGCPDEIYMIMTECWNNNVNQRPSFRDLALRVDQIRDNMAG

`COc1nn(C)cc1Nc1ncc(F)c(-c2c[nH]c3c(NC(=O)[C@H]4C[C@H](OC)CN4C4CCNCC4)cccc23)n1` [Example 9, (2R,4S)-N-(3-(5-fluoro-2-((3-methoxy-1-methyl-1H-pyrazol-4-yl)amino)pyrimidin-4-yl)-1H-indol-7-yl)-4-methoxy-1-(piperidin-4-yl)pyrrolidine-2-carboxamide]: the half-inhibitory concentration (IC50) stood at 5000 nM in assay [1] and 51 nM in assay [2].
The corresponding values for `COc1nn(C)cc1Nc1ncc(C)c(-c2c[nH]c3c(NC(=O)[C@H]4CCCN4[C@@H]4CCN(C)C4)cccc23)n1` [Example 28, (2R,3′R)-N-(3-(2-((3-methoxy-1-methyl-1H-pyrazol-4-yl)amino)-5-methylpyrimidin-4-yl)-1H-indol-7-yl)-1′-methyl-[1,3′-bipyrrolidine]-2-carboxamide] are 16300 nM and 40 nM.
Turning to `COc1nn(C)cc1Nc1ncc(F)c(-c2c[nH]c3c(NC(=O)[C@H]4CCCN4[C@@H]4CCNC4)cccc23)n1` [Example 22, (2R,3′R)-N-(3-(5-fluoro-2-((3-methoxy-1-methyl-1H-pyrazol-4-yl)amino)pyrimidin-4-yl)-1H-indol-7-yl)-[1,3′-bipyrrolidine]-2-carboxamide], the values for the IC50 in assay [1] and in assay [2] were 7280 nM and 46 nM, respectively.
For `COc1nn(C)cc1Nc1ncc(Cl)c(-c2c[nH]c3c(NC(=O)[C@H]4CCCN4C4CCN(C)CC4)cccc23)n1` [Example 15, (R)-N-(3-(5-chloro-2-((3-methoxy-1-methyl-1H-pyrazol-4-yl)amino)pyrimidin-4-yl)-1H-indol-7-yl)-1-(1-methylpiperidin-4-yl)pyrrolidine-2-carboxamide] the same measures were 3640 nM and 27 nM.
The corresponding values for `COc1nn(C)cc1Nc1nccc(-c2c[nH]c3c(NC(=O)[C@H]4C[C@H](F)CN4[C@H]4CCNC4)cccc23)n1` (single isomer, unassigned) [Example 19] are 15500 nM and 368 nM.
For `COc1nn(C)cc1Nc1nccc(-c2c[nH]c3c(NC(=O)[C@H]4CC(F)(F)CN4[C@H]4CCN(C)C4)cccc23)n1` [Example 37, (2R,3′S)-4,4-difluoro-N-(3-(2-((3-methoxy-1-methyl-1H-pyrazol-4-yl)amino)pyrimidin-4-yl)-1H-indol-7-yl)-1′-methyl-[1,3′-bipyrrolidine]-2-carboxamide] the same measures were 10800 nM and 216 nM.
Turning to `COc1nn(C)cc1Nc1ncc(C)c(-c2c[nH]c3c(NC(=O)[C@@H]4CCCN4S(C)(=O)=O)cccc23)n1` [Example 3, (S)-N-(3-(2-((3-methoxy-1-methyl-1H-pyrazol-4-yl)amino)-5-methylpyrimidin-4-yl)-1H-indol-7-yl)-1-(methanesulfonyl)pyrrolidine-2-carboxamide], the IC50 in assay [1] is 2210 nM; in assay [2], 70 nM.
Turning to `COc1nn(C)cc1Nc1ncc(C)c(-c2c[nH]c3c(NC(=O)[C@H]4CCCN4[C@H]4CCN(C)C4)cccc23)n1` [Example 29, (2R,3′S)-N-(3-(2-((3-methoxy-1-methyl-1H-pyrazol-4-yl)amino)-5-methylpyrimidin-4-yl)-1H-indol-7-yl)-1′-methyl-[1,3′-bipyrrolidine]-2-carboxamide], the concentration for half-maximal inhibition (IC50) in assay [1] is 13400 nM; in assay [2], 67 nM.
For `COc1nn(C)cc1Nc1ncc(C)c(-c2c[nH]c3c(NC(=O)[C@H]4CC(F)(F)CN4[C@H]4CCN(C)C4)cccc23)n1` [Example 33, (2R,3′S)-4,4-difluoro-N-(3-(2-((3-methoxy-1-methyl-1H-pyrazol-4-yl)amino)-5-methylpyrimidin-4-yl)-1H-indol-7-yl)-1′-methyl-[1,3′-bipyrrolidine]-2-carboxamide] the same measures were 3430 nM and 39 nM.
Take `COc1nn(C)cc1Nc1ncc(C)c(-c2c[nH]c3c(NC(=O)[C@H]4C[C@H](OC)CN4C4CCN(C)CC4)cccc23)n1` [Example 13, (2R,4S)-4-methoxy-N-(3-(2-((3-methoxy-1-methyl-1H-pyrazol-4-yl)amino)-5-methylpyrimidin-4-yl)-1H-indol-7-yl)-1-(1-methylpiperidin-4-yl)pyrrolidine-2-carboxamide]: the 50% inhibitory concentration (IC50) in assay [1] came out at 14500 nM; in assay [2] it was 101 nM.
The corresponding values for `COc1nn(C)cc1Nc1ncc(F)c(-c2c[nH]c3c(NC(=O)[C@@H]4CCCN4S(C)(=O)=O)cccc23)n1` [Example 1, (S)—N-(3-(5-fluoro-2-((3-methoxy-1-methyl-1H-pyrazol-4-yl)amino)pyrimidin-4-yl)-1H-indol-7-yl)-1-(methanesulfonyl)pyrrolidine-2-carboxamide] are 2820 nM and 73 nM.
For `COc1nn(C)cc1Nc1ncc(C)c(-c2c[nH]c3c(NC(=O)[C@H]4CC(F)(F)CN4[C@@H]4CCOC4)cccc23)n1` [Example 34, (R)-4,4-difluoro-N-(3-(2-((3-methoxy-1-methyl-1H-pyrazol-4-yl)amino)-5-methylpyrimidin-4-yl)-1H-indol-7-yl)-1-((R)-tetrahydrofuran-3-yl)pyrrolidine-2-carboxamide] the same measures were 2510 nM and 161 nM.
The corresponding values for `COc1nn(C)cc1Nc1ncc(F)c(-c2c[nH]c3c(NC(=O)[C@H]4CCCN4[C@@H]4CCN(C)C4)cccc23)n1` [Example 24, (2R,3′R)-N-(3-(5-fluoro-2-((3-methoxy-1-methyl-1H-pyrazol-4-yl)amino)pyrimidin-4-yl)-1H-indol-7-yl)-1′-methyl-[1,3′-bipyrrolidine]-2-carboxamide] are 14600 nM and 40 nM.
Consider `CCO[C@H]1C[C@H](C(=O)Nc2cccc3c(-c4nc(Nc5cn(C)nc5OC)ncc4C)c[nH]c23)N(C2CCN(C)CC2)C1` [Example 12, (2R,4S)-4-ethoxy-N-(3-(2-((3-methoxy-1-methyl-1H-pyrazol-4-yl)amino)-5-methylpyrimidin-4-yl)-1H-indol-7-yl)-1-(1-methylpiperidin-4-yl)pyrrolidine-2-carboxamide], for which the IC50 in assay [1] was 12000 nM; in assay [2] it was 103 nM.
The corresponding values for `COc1nn(C)cc1Nc1ncc(F)c(-c2c[nH]c3c(NC(=O)[C@H]4CCCN4C4CCNCC4)cccc23)n1` [Example 5, (R)—N-(3-(5-fluoro-2-((3-methoxy-1-methyl-1H-pyrazol-4-yl)amino)pyrimidin-4-yl)-1H-indol-7-yl)-1-(piperidin-4-yl)pyrrolidine-2-carboxamide] are 4300 nM and 55 nM.
For `COc1nn(C)cc1Nc1ncc(Cl)c(-c2c[nH]c3c(NC(=O)[C@@H]4CCCN4S(C)(=O)=O)cccc23)n1` [Example 4, (S)-N-(3-(5-chloro-2-((3-methoxy-1-methyl-1H-pyrazol-4-yl)amino)pyrimidin-4-yl)-1H-indol-7-yl)-1-(methanesulfonyl)pyrrolidine-2-carboxamide] the same measures were 652 nM and 53 nM.
Regarding `COc1nn(C)cc1Nc1nccc(-c2c[nH]c3c(NC(=O)[C@H]4C[C@H](F)CN4[C@@H]4CCNC4)cccc23)n1` (single isomer, unassigned) [Example 18], the IC50 amounted to 10200 nM in assay [1] and 108 nM in assay [2].
The corresponding values for `COc1nn(C)cc1Nc1ncc(F)c(-c2c[nH]c3c(NC(=O)[C@H]4C[C@H](F)CN4[C@@H]4CCN(C)C4)cccc23)n1` [Example 38, (2R,3′R,4S)-4-fluoro-N-(3-(5-fluoro-2-((3-methoxy-1-methyl-1H-pyrazol-4-yl)amino)pyrimidin-4-yl)-1H-indol-7-yl)-1′-methyl-[1,3′-bipyrrolidine]-2-carboxamide] are 5280 nM and 34 nM.
With `COc1nn(C)cc1Nc1ncc(F)c(-c2c[nH]c3c(NC(=O)[C@H]4CCCN4C4CCN(C)CC4)cccc23)n1` [Example 10, (R)-N-(3-(5-fluoro-2-((3-methoxy-1-methyl-1H-pyrazol-4-yl)amino)pyrimidin-4-yl)-1H-indol-7-yl)-1-(1-methylpiperidin-4-yl)pyrrolidine-2-carboxamide], the IC50 came to 14600 nM in assay [1] and 104 nM in assay [2].
As for `COc1nn(C)cc1Nc1nccc(-c2c[nH]c3c(NC(=O)[C@H]4C[C@H](F)CN4[C@@H]4CCN(C)C4)cccc23)n1` (single isomer, unassigned) [Example 20], the IC50 in assay [1] was determined as 21500 nM; in assay [2], 120 nM.
As to `COc1nn(C)cc1Nc1ncc(C)c(-c2c[nH]c3c(NC(=O)[C@H]4CC(F)(F)CN4[C@H]4CCOC4)cccc23)n1` [Example 35, (R)-4,4-difluoro-N-(3-(2-((3-methoxy-1-methyl-1H-pyrazol-4-yl)amino)-5-methylpyrimidin-4-yl)-1H-indol-7-yl)-1-((S)-tetrahydrofuran-3-yl)pyrrolidine-2-carboxamide], the figures for the half-inhibitory concentration (IC50) in assay [1] and in assay [2] were 1890 nM and 115 nM, respectively.
With `COc1nn(C)cc1Nc1nccc(-c2c[nH]c3c(NC(=O)[C@H]4CC(F)(F)CN4C4CCN(C)CC4)cccc23)n1` [Example 17, (R)-4,4-difluoro-N-(3-(2-((3-methoxy-1-methyl-1H-pyrazol-4-yl)amino)pyrimidin-4-yl)-1H-indol-7-yl)-1-(1-methylpiperidin-4-yl)pyrrolidine-2-carboxamide], the IC50 in assay [1] was determined as 10500 nM; in assay [2] it was 216 nM.

For the origin of these results see patent publication US20230416237A1, “AMIDE COMPOUND, PHARMACEUTICAL COMPOSITION AND USE THEREOF” (SHENZHEN BO LI JIAN MEDICINE CO., LTD., priority 2020, published 2023).
